Assay results taken from ChEMBL document CHEMBL5608247, “Development of a First-in-Class DNMT1/HDAC Inhibitor with Improved Therapeutic Potential and Potentiated Antitumor Immunity” (J Med Chem, 2024).
Calls of active or inactive are those of the source. The calls are words filed in the database; no cut-off is given here.

Tests used:
MV4-11 [1] = experiment: Downregulation of MYC expression in human MV4-11 cells at 100 nM incubated for 2 days in presence of SAHA by RNA-Seq analysis; assay type: functional, cell-based; details: time 2.0 day
MC-38 [2] = experiment: Immunomodulatory activity in mouse MC38 cells allografted in mouse assessed as accumulation of T cells at 30 mg/kg, ip qd in presence of SAHA; assay type: functional, organism-based
MC-38 [3] = experiment: Immunomodulatory activity in mouse MC38 cells allografted in mouse assessed as increase in IFN-gamma-positive cells at 30 mg/kg, ip qd in presence of SAHA; assay type: functional, organism-based
[4] = Toxicity in immunodeficient BALB/c nude mouse allografted with mouse MC38 cells assessed as body weight loss at 30 mg/kg, ip qd for 15 days in presence of SAHA; assay type: organism-based, MC-38; details: in vivo, 360 h, time 15 day
MC-38 [5] = experiment: Immunomodulatory activity in mouse MC38 cells allografted in mouse assessed as polarization of macrophages towards tumor -suppressing M1 phenotype at 30 mg/kg, ip qd in presence of SAHA; assay type: functional, organism-based
MV4-11 [6] = experiment: Antitumor activity against human MV4-11 cells xenografted in BALB/c nude mouse at 30 mg/kg, ip qd for 27 days in presence of SAHA relative to control; assay type: functional; details: MV4-11, 648 h, time 27 day, read-out: TGI
MV4-11 [7] = experiment: Downregulation of FOXH1 expression in human MV4-11 cells at 100 nM incubated for 2 days in presence of SAHA by RNA-Seq analysis; assay type: functional, cell-based; details: time 2.0 day
[8] = molecular target: T1, DNA (cytosine-5)-methyltransferase 1 (Homo sapiens, UniProt P26358); experiment: Inhibition of DNMT1 in human HL-60 cells at 1 uM incubated for 6 hrs in presence of Z-VAD-FMK by Western blot analysis; assay type: cell-based
T1 sequence (P26358 whole entry): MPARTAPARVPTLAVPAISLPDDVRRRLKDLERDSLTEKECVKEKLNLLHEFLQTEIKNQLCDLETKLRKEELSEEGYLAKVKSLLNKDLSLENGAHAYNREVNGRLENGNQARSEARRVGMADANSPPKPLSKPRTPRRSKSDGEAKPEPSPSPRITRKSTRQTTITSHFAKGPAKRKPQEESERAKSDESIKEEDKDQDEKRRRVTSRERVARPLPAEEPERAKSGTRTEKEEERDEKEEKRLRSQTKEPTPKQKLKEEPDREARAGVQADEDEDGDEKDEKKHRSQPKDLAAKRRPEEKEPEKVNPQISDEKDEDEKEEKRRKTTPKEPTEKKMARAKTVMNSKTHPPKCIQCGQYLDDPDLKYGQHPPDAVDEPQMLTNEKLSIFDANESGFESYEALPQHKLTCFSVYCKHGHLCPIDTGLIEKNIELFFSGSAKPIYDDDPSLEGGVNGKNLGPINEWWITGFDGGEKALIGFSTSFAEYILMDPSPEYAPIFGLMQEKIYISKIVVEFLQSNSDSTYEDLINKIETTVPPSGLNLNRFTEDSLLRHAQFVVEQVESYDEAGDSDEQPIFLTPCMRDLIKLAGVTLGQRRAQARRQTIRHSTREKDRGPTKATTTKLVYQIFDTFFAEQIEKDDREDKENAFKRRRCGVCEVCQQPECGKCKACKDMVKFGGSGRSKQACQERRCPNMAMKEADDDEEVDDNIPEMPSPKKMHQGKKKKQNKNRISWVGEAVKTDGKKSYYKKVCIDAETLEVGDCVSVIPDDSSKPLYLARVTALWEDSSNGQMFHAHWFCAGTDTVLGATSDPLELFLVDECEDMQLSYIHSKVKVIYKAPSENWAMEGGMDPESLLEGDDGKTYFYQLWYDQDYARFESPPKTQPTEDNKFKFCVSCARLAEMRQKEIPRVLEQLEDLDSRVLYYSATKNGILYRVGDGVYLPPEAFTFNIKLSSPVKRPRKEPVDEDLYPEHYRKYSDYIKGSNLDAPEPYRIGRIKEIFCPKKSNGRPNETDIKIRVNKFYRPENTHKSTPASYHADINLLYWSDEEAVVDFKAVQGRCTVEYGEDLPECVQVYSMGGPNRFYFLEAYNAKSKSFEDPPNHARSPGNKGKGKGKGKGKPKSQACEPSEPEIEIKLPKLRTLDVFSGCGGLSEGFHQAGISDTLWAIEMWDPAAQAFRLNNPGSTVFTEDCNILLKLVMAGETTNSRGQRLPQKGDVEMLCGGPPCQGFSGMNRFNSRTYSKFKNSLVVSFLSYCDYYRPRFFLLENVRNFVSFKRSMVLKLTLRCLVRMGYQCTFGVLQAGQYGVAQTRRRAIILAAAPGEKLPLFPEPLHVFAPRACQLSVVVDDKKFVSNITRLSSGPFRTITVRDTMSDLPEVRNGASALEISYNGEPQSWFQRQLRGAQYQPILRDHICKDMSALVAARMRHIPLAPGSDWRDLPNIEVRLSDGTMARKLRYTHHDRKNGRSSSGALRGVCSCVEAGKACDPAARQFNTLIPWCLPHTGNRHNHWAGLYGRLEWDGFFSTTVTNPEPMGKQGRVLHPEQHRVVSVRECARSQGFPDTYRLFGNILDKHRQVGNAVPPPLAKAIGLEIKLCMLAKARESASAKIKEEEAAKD

MC-38 [9] = experiment: Upregulation of IAPEz mRNA level in mouse MC38 cells at 1 to 3 uM incubated for 3 days in presence of SAHA by qRT-PCR analysis; assay type: functional, cell-based; details: dose 1-3 µM, time 3.0 day
[10] = molecular target: Histone deacetylase (Homo sapiens) (UniProt Q13547+O15379+Q9UBN7+Q92769+Q9UQL6+Q8WUI4+Q9BY41+Q96DB2+P56524+Q9UKV0+Q969S8); experiment: Inhibition of HDAC in human MV4-11 cells at 100 nM incubated for 2 days in presence of SAHA by RNA-Seq analysis; assay type: cell-based; details: time 2.0 day
[11] = molecular target: T1, DNA (cytosine-5)-methyltransferase 1; experiment: Inhibition of DNMT1 in human MV4-11 cells at 1 uM incubated for 6 hrs in presence of Z-VAD-FMK by Western blot analysis; assay type: cell-based
MC-38 [12] = experiment: Upregulation of Oas2 mRNA level in mouse MC38 cells at 1 to 3 uM incubated for 3 days in presence of SAHA by qRT-PCR analysis; assay type: functional, cell-based; details: dose 1-3 µM, time 3.0 day
MV4-11 [13] = experiment: Upregulation of S100A16 expression in human MV4-11 cells at 100 nM incubated for 2 days in presence of SAHA by RNA-Seq analysis; assay type: functional, cell-based; details: time 2.0 day
[14] = molecular target: T1, DNA (cytosine-5)-methyltransferase 1; experiment: Inhibition of DNMT1 in human MV4-11 cells assessed as ABT1 promoter methylation at 300 nM incubated for 3 days by Bisulfite Sequencing PCR analysis (reference value: 99.3 %); assay type: cell-based; design: scale not given: the % may be the effect or the level left; details: time 3.0 day
[15] = molecular target: T1, DNA (cytosine-5)-methyltransferase 1; experiment: Inhibition of DNMT1 in human MV4-11 cells at 1 uM incubated for 6 hrs in presence of CQ by Western blot analysis; assay type: cell-based
[16] = molecular target: T1, DNA (cytosine-5)-methyltransferase 1; experiment: Inhibition of DNMT1 in human HL-60 cells at 1 uM incubated for 6 hrs in presence of MG132 by Western blot analysis; assay type: cell-based
MC-38 [17] = experiment: Immunomodulatory activity in mouse MC38 cells allografted in mouse assessed as inhibition of pro-tumor M2 polarization at 30 mg/kg, ip qd in presence of SAHA; assay type: functional, organism-based
MV4-11 [18] = experiment: Antitumor activity against human MV4-11 cells xenografted in BALB/c nude mouse at 45 mg/kg, ip qd treated for 19 days relative to control; assay type: functional; details: MV4-11, 456 h, time 19 day, read-out: TGI
[19] = molecular target: T1, DNA (cytosine-5)-methyltransferase 1; experiment: Induction of thermal stabilization of N-terminal 6xHis-FLAG-tagged […] human DNMT1 (698 to 1616 residues) extracted from Sf9 cells assessed as change in melting temperature at 10 uM by SYPRO Orange dye based PTS assay (reference value: 0.0 degreeC); assay type: cell-based
MC-38 [20] = experiment: Immunomodulatory activity in mouse MC38 cells allografted in mouse assessed as accumulation of NKT cells at 30 mg/kg, ip qd in presence of SAHA; assay type: functional, organism-based
[21] = molecular target: T1, DNA (cytosine-5)-methyltransferase 1; experiment: Synergistic inhibition of DNMT1 in human MV4-11 cells at 100 nM incubated for 2 days in presence of SAHA by RNA-Seq analysis; assay type: cell-based; details: time 2.0 day
[22] = Toxicity in immunodeficient BALB/c nude mouse allografted with mouse MC38 cells assessed as drug tolerance at 30 mg/kg, ip qd for 15 days in presence of SAHA; assay type: organism-based, MC-38; details: in vivo, 360 h, time 15 day
[23] = Inhibition of cell viability in human HSPC cells incubated for 4 days in presence of SAHA by CCK8 assay; assay type: toxicity, cell-based
MC-38 [24] = experiment: Antitumor activity against mouse MC38 cells allografted in immunodeficient BALB/c nude mouse at 30 mg/kg, ip qd for 15 days in presence of SAHA relative to control; assay type: functional; details: MC-38, 360 h, time 15 day, read-out: TGI
[25] = Toxicity in BALB/c nude mouse xenografted with human MV4-11 cells assessed as body weight loss at 45 mg/kg, ip qd treated for 19 days; assay type: organism-based; details: in vivo, 456 h, time 19 day
MC-38 [26] = experiment: Upregulation of Isg15 mRNA level in mouse MC38 cells at 1 to 3 uM incubated for 3 days in presence of SAHA by qRT-PCR analysis; assay type: functional, cell-based; details: dose 1-3 µM, time 3.0 day
Kasumi 1 = experiment: Inhibition of cell viability in human Kasumi 1 cells incubated for 4 days in presence of SAHA by CCK8 assay; assay type: functional, cell-based; details: Kasumi 1, 96 h
HL-60 = experiment: Inhibition of cell viability in human HL-60 cells incubated for 4 days in presence of SAHA by CCK8 assay; assay type: functional, cell-based; details: HL-60, 96 h
[27] = Toxicity in BALB/c nude mouse xenografted with human MV4-11 cells assessed as body weight loss at 30 mg/kg, ip qd for 27 days in presence of SAHA; assay type: organism-based; details: in vivo, 648 h, time 27 day
MV4-11 [28] = experiment: Inhibition of cell viability in human MV4-11 cells incubated for 4 days in presence of SAHA by CCK8 assay; assay type: functional, cell-based; details: MV4-11, 96 h
[29] = molecular target: T1, DNA (cytosine-5)-methyltransferase 1; experiment: Inhibition of DNMT1 in human MV4-11 cells at 1 uM incubated for 6 hrs in presence of MG132 by Western blot analysis; assay type: cell-based
MV4-11 [30] = experiment: Upregulation of p57 expression in human MV4-11 cells at 100 nM incubated for 2 days in presence of SAHA by RNA-Seq analysis; assay type: functional, cell-based; details: time 2.0 day
[31] = molecular target: T1, DNA (cytosine-5)-methyltransferase 1; experiment: Inhibition of DNMT1 in human HL-60 cells at 1 uM incubated for 6 hrs in presence of CQ by Western blot analysis; assay type: cell-based
MV4-11 [32] = experiment: Antiproliferative activity against human MV4-11 cells incubated for 96 hrs by CCK8 assay; assay type: functional, cell-based; details: MV4-11, 96 h
[33] = Toxicity in BALB/c nude mouse xenografted with human MV4-11 cells assessed as animal fatality at 45 mg/kg, ip qd treated for 19 days; assay type: organism-based; details: in vivo, 456 h, time 19 day
MV4-11 [34] = experiment: Downregulation of GLIS2 expression in human MV4-11 cells at 100 nM incubated for 2 days in presence of SAHA by RNA-Seq analysis; assay type: functional, cell-based; details: time 2.0 day
MV4-11 [35] = experiment: Upregulation of BLK expression in human MV4-11 cells at 100 nM incubated for 2 days in presence of SAHA by RNA-Seq analysis; assay type: functional, cell-based; details: time 2.0 day
MV4-11 [36] = experiment: Downregulation of GPR183 expression in human MV4-11 cells at 100 nM incubated for 2 days in presence of SAHA by RNA-Seq analysis; assay type: functional, cell-based; details: time 2.0 day

For `CCc1c(C#N)c(SC(C(N)=O)c2ccccc2)nc(N2CCC(N)CC2)c1C#N` (stereo not drawn), the Activity (MV4-11 [1]) was “Active”, the Activity (MC-38 [2]) was “Active” and the Activity (MC-38 [3]) was “Active”. The Activity [4] was “Non-Toxic”, the Activity (MC-38 [5]) was “Active” and the inhibition in vivo at 30 mg/kg (MV4-11 [6]) was 89%. The Activity (MV4-11 [7]) was “Active”, the inhibition [8] was “Active” and the Activity (MC-38 [9]) was “Active”. For the same compound, the inhibition [10] was “Active”, the inhibition [11] was “Active” and the Activity (MC-38 [12]) was “Active”. The Activity (MV4-11 [13]) was “Active”, the Activity [14] was 6.43% and the inhibition [15] was “Active”. For the same compound, the inhibition [16] was “inactive”, the inhibition (MC-38 [17]) was “Active” and the inhibition in vivo at 45 mg/kg (MV4-11 [18]) was 93%. For the same compound, the ΔTm [19] was 8 °C, the Activity (MC-38 [20]) was “Active” and the inhibition [21] was “Active”. The Activity [22] was “Non-Toxic”, the IC50 at 4 days [23] was 800 nM and the inhibition in vivo at 30 mg/kg (MC-38 [24]) was 24%. The Activity [25] was “Toxic”, the Activity (MC-38 [26]) was “Active” and the IC50 (Kasumi 1) was 380 nM. The IC50 (HL-60) was 320 nM, the Activity [27] was “Toxic” and the IC50 (MV4-11 [28]) was 400 nM. The inhibition [29] was “inactive”, the Activity (MV4-11 [30]) was “Active” and the inhibition [31] was “Active”. For the same compound, the IC50 (MV4-11 [32]) was greater than 5000 nM, the Activity [33] was “Toxic” and the Activity (MV4-11 [34]) was “Active”. The Activity (MV4-11 [35]) was “Active” and the Activity (MV4-11 [36]) was “Active”.
